Laboratory results as given in article PMC7593722, “UPLC-MS/MS Method for the Simultaneous Quantification of Eight Compounds in Rat Plasma and Its Application to a Pharmacokinetic Study after Oral Administration of Veratrum (Veratrum nigrum L.) Extract” (BioMed Research International, 2020).

Test: in vivo
Conditions: for Detection in rat plasma after dosing: no complete pharmacokinetic curve; for Tmax: T max
Description: 0.1% formic acid in water (A) and acetonitrile (B) were used as mobile phases with the following gradient elution method: 0-2 min, 15%-25% B; 2-4 min, 25%-50% B; 4-6 min, 50%-90% B; and 6-7 min, 90%-95% B. The separation was performed on a Waters ACQUITY UPLC® CSHTM Phenyl-Hexyl (2.1 × 100 mm, 1.7 μm) column, and the temperature was maintained at 20°C. The flow rate and injection volume were 0.3 mL/min and 5 μL, respectively.
100 μL plasma sample was incorporated with 20 μL methanol and 20 μL of IS (20 ng/mL), and vortexed for 30 seconds. 1 mL ethyl acetate was then added to the sample and vortex-mixed for 3 min. […] The obtained residue was reconstituted in 100 μL methanol and centrifugation at 12000 × g for 10 min. 5 μL of the supernatant was injected for UPLC-MS/MS measurement.
Six male Sprague-Dawley rats (body weight, 220 ± 10 g) were used for this experiment. […] 0.5% CMC-Na aqueous solution was used to dissolve the Veratrum nigrum L. extract to a concentration of 0.2 g/mL suspension. […] After centrifugation at 4000 × g for 10 min at 4°C, the collected plasma was transferred into clean tubes and frozen at -80°C until next analysis. Pharmacokinetic parameters were calculated using “Drug and Statistics 3.0” (DAS 3.0) (Medical College of Wannan, China). The animal protocol was approved by the Animal Ethics Committee of Tianjin University of Traditional Chinese Medicine (TCM-LAEC20190060).
Some important pharmacokinetic parameters were calculated in this study including Cmax, the maximum plasma concentration and time to reach Cmax of each compound (Tmax). The T1/2 was the elimination half-life and it reflects the elimination rate of the drug in the body. The area under the plasma concentration-time curve AUC(0 − t) was calculated using the trapezoidal rule and extrapolated to infinity for AUC(0 − ∞). The mean residence time (MRT) of these ingredients was also investigated.

[1] = oral Veratrum nigrum L. extract 2 g/kg
[2] = male, Sprague-Dawley, rat, in vivo, po, 2 g/kg
[3] = male, Sprague-Dawley, rat, in vivo, po, 2 g/kg, male Sprague-Dawley rats, oral Veratrum nigrum L. extract 2 g/kg, plasma, n = 6, mean ± SD

| SMILES | Detection in rat plasma after dosing [1] | T max (male Sprague-Dawley rats, oral Veratrum nigrum L. extract 2 g/kg, plasma, n = 6, mean ± SD) | AUC(0-inf) [2] | AUC(0-t) [2] | Cmax [2] | MRT [2] | MRT inf [2] | half-life [2] | Tmax [3] | T max [2] | Tmax [2] |
| --- | --- | --- | --- | --- | --- | --- | --- | --- | --- | --- | --- |
| O=c1cc(-c2ccc(O)cc2)oc2cc(O)cc(O)c12 [Apigenin, apigenin] | only detected at the first few plasma sampling points |  |  |  |  |  |  |  |  |  |  |
| CC1=C2C[C@H]3[C@@H](CC=C4C[C@@H](O)CC[C@@]43C)[C@@H]2CC[C@]12O[C@@H]1C[C@H](C)CN[C@H]1[C@H]2C [Cyclopamine, cyclopamine] | only detected at the first few plasma sampling points |  |  |  |  |  |  |  |  |  |  |
| CC1=C2C(=O)[C@H]3[C@@H](CC=C4C[C@@H](O)CC[C@@]43C)[C@@H]2CC[C@]12O[C@@H]1C[C@H](C)CN[C@H]1[C@H]2C [Jervine, jervine] |  | 32.00 ± 6.20 h | 22700 ± 9430 ng·h/mL | 22600 ± 9390 ng·h/mL | 515 ± 242 ng/mL | 38.8 ± 5.58 h | 39.1 ± 5.53 h | 13.6 ± 1.36 h | > 32 h |  |  |
| OC[C@H]1O[C@@H](Oc2cc(O)cc(/C=C/c3ccc(O)cc3)c2)[C@H](O)[C@@H](O)[C@@H]1O [Polydatin, polydatin] |  |  | 71.2 ± 13.9 ng·h/mL | 60.4 ± 18.1 ng·h/mL | 27.1 ± 24 ng/mL | 13.2 ± 2.98 h | 16.5 ± 13.7 h | 14.4 ± 10.6 h | 0.26 ± 0.29 h |  |  |
| O=c1c(O)c(-c2ccc(O)c(O)c2)oc2cc(O)cc(O)c12 [Quercetin, quercetin] | only detected at the first few plasma sampling points |  |  |  |  |  |  |  |  |  |  |
| Oc1ccc(/C=C/c2cc(O)cc(O)c2)cc1 [Resveratrol, resveratrol] |  |  | 101 ± 51.5 ng·h/mL | 89.7 ± 49.3 ng·h/mL | 45 ± 39.5 ng/mL | 13.2 ± 7.77 h | 19 ± 15.5 h | 2.24 ± 1.11 h | 0.18 ± 0.17 h |  |  |
| Cc1c([C@H](C)[C@@H]2NC[C@@H](C)C[C@H]2O)ccc2c1C[C@H]1[C@H]2CC=C2C[C@@H](O)CC[C@@]21C [Veratramine, veratramine] |  |  | 8000 ± 2330 ng·h/mL | 7980 ± 2330 ng·h/mL | 193 ± 76.5 ng/mL | 38.8 ± 5.83 h | 39 ± 5.91 h | 14.2 ± 6.51 h |  | 34.08 ± 23.14 h | > 32 h |
| Cc1c([C@H](C)[C@@H]2NC[C@@H](C)C[C@H]2O)ccc2c1C[C@H]1[C@H]2CC=C2C[C@@H](O[C@@H]3O[C@H](CO)[C@@H](O)[C@H](O)[C@H]3O)CC[C@@]21C [Veratrosine, veratrosine] |  |  | 421 ± 199 ng·h/mL | 410 ± 183 ng·h/mL | 237 ± 155 ng/mL | 10.5 ± 6.9 h | 11.3 ± 7.68 h | 11.5 ± 7.04 h | 0.08 h |  |  |
